Source: US11918548B2, “Treatment of avascular or hypovascular micro-tumors” (Katholieke Universiteit Leuven, priority 2017, dated 2024)
Where “and” joins values, the source holds several entries; their conditions need not be identical. Identical values can stand only once.

Legend:
[1] = tested on: rodent sarcoma, squamous cell carcinoma, fibrosarcoma, human renal cell carcinoma, Kaposi's sarcoma and breast carcinoma; settings: intraperitoneal injection; cited from earlier work
[2] = tested on: micro-HCCs and cirrhotic liver; assay: In vivo MRI (DWI-derived ADCperf/ADCdiff, T2WI, CE-T1WI) of micro-HCCs and surrounding cirrhotic liver after CA4P; set-up: species or system rat
Experimental: Images were acquired on a clinical 3.0T MRI scanner (MAGNETOM Prisma; Siemens, Erlangen, Germany) and a human wrist coil (Hand/Wrist 16, A 1.5 T Tim coil, Siemens). Twenty axial images were acquired, with a slice thickness of 2.0 mm and a gap of 0.4 mm. T2-weighted (repetition time, 4000 ms; echo time, 70 ms; flip angle, 150°; field of view, 75×56 mm^2; matrix, 256×192) and T1-weighted (repetition time, 626 ms; echo time, 15 ms; flip angle, 160°; field of view, 75×56 mm^2; matrix, 256×192) turbo spin echo (TSE) images (T2WI, T1WI) were performed weekly to monitor tumor growth, while T2WI, T1WI, diffusion-weighted imaging (DWI) and consecutive contrast-enhanced (CE-) T1WIs were acquired to evaluate CA4P treatment. For DWI, a 2-dimensional SE echo-planar imaging (EPI) sequence (repetition time, 3500 ms; echo time, 62 ms; flip angle, 90°; field of view, 136×74 mm2; matrix, 96×52) with 8 b values (0, 50, 100, 150, 400, 600, 800 and 1000 seconds/mm^2) was acquired. For CE-MRI, a bolus of 0.2 mmol/kg Gd-DOTA was injected before a series of CE-T1WIs were acquired.?
(§1) Tumor growth was monitored weekly by MRI from the 9th week after DENA administration until the largest tumor lesion attained more than 1 mm in diameter. All recruited tumor-carrying rats received single intravenous injection of CA4P at 10 mg/kg. T2WI, T1WI, DWI and CE-T1WI were performed 4 h before and 12 h after CA4P therapy. Rats were euthanized after the last time point of MRI for postmortem microangiography and histopathology.
On DWI, tumor area was manually contoured with an operator-defined region of interest (ROI) on all tumor-containing images. ADC map was calculated from DWI to quantify therapeutic responses by the following mono-exponential formula: Si=S0×exp (−bi×ADC), in which Si is the signal intensity (SI) measured on the ith b value image, bi is the corresponding b value, and S0 is a variable estimating the intrinsic SI (for b=0 seconds/mm^2).
For the calculation of different ADC values, tumors were freehand delineated only on the central slices with the largest cross-sectional areas on the original DWIs at the b value of 1000 s/mm^2, in order to avoid partial volume effects. The delineation of each tumor lesion was copied to all images with different b values automatically. The average SI per tumor and per b value was then determined. The difference between ADClow (b=0, 50 and 100 s/mm^2) and ADChigh (b=600, 800 and 1000 s/mm^2) was defined as ADCperf to reflect the tissue microcapillary perfusion, while ADChigh was defined as ADCdiff [Chen et al. (2007) Methods. 43, 12-20].

cirrhotic liver = assay: Tolerability of the procedures and liver damage in cirrhotic rats after CA4P; format: in vivo, rat
Experimental: as §1
(§2) After microangiography, the tumor sections were paraffin imbedded, sliced into 5 μm thickness and stained with hematoxylin and eosin (H&E) for microscopic analysis using an Axiovert 200M microscope equipped with an AxioCam MR monochrome digital camera (Carl Zeiss Inc, Gottingen, Germany) and by AxioVision 4.8 software.

implanted tumor models = settings: in vivo; cited from earlier work
[3] = tested on: primary hepatocellular carcinomas (HCCs); assay: CA4P-induced tumoral necrosis in DENA-induced primary HCCs on cirrhotic liver (histopathology, microangiography); format: in vivo, rat
Experimental: as §1
After the last MRI scanning, rats were anesthetized by an intraperitoneal injection of pentobarbital at 50 mg/kg. Then laparotomy was performed with blood collected via postcava and abdominal aorta cannulated, through which barium suspension was injected before the entire tumor-bearing liver was excised. With a digital mammography unit (Em-brace; Agfa-Gevaert, Mortsel, Belgium), postmortem hepatic arteriography was made at 26 kV, 32 mAs to document changes in tumor vascularity. The livers were then fixed and sliced into 3-mm sections in the axial plane corresponding to the MR images, and these sections were radiographed at 26 kV, 18 mAs for qualitative analysis.
as §2
Due to the high analogy to the histopathological progression observed in human liver cancer, rat primary HCCs were diagnosed according to the classical histomorphologic features: malignant hepatocytic tumors, often well vascularized, with wide trabeculae (>3 cell layers), noticeable acinar pattern, small cell changes, cytologic atypia, prominent nucleoli, mitotic activity, vascular invasion, absence of Kupffer cells and the loss of the reticulin network. The differentiation of rat HCCs was further classified into Grade I-IV using a modified 4-scale Edmondson and Steiner system [Schlageter et al. cited above].
Digital images of tumor slices at a magnification of 12.5 were used to estimate the percentage of tumor necrosis by ImageJ software [Buijs et al. (2011) J Vasc Intery Radiol 22, 1175-1180]. Briefly, regions of interest were delineated around the entire tumor and the necrotic tumor, respectively, to get ‘necrotic ratio on each section’. For each tumor section, the axial slide representing this tumor block was selected as ‘section area’. Tumor necrosis on each H&E stained slice was estimated independently by 2 pathologists, and calculated with the equation: Intratumoral necrosis ratio (%)=Σ[Necrotic ratio on each section (%)×section area (mm^2)]×section thickness (mm)/[4/3π r^3] (mm^3).
Statistical analyses were carried out by GraphPad Prism (version 7.02, GraphPad Software Inc, La Jolla, Calif., USA). The Pearson's correlation coefficient was calculated between percentile tumoral necrosis calculated by histopathology and tumor diameter measured from T2WI. Numerical data were presented as mean±standard errors of the mean (SEM). Comparison of percentile tumoral necrosis was performed by unpaired […] t-test; results of ADCs between tumor and liver background were compared by two-way ANOVA. A significant difference was concluded for P<0.05.

rhabdomyosarcomas (R1) = assay: CA4P in rats with liver implantation of micro rhabdomyosarcomas (R1); format: in vivo, rat
From the text: To verify whether the above unexpected findings can be supported in other types of solid tumors, we intentionally studied CA4P in a group of rats with liver implantation of rhabdomyosarcomas (R1) ranging from 1 to 5 mm in diameter as monitored by noninvasive longitudinal MRI and verified by postmortem techniques. R1 has been extensively studied on VDA research before but in much larger tumor size.

macro- and micro-cancers = settings: input of the model; cited from earlier work
[4] = tested on: subcutaneous rhabdomyosarcomas; settings: large tumors (≥14 cm^3) versus small tumors (<1 cm^3); cited from earlier work
[5] = 12 h after CA4P 10 mg/kg iv versus baseline
[6] = micro-HCC, CA4P 10 mg/kg iv, 12 h

Structure (SMILES): COc1cc2c(c(OC)c1OC)-c1ccc(OP(=O)(O)O)cc1[C@@H](NC(C)=O)CC2 [ZD6126, N-acetylcochinol-O-phosphate]
- necrosis in tumors larger than 1 g [1]: ~90%
- necrosis in tumors of less than 0.3 g [1]: ~25%

Structure (SMILES): COc1ccc(/C=C\c2cc(OC)c(OC)c(OC)c2)cc1OP(=O)(O)O [CA4P, combretastatin A-4 phosphate]
- ADCdiff in micro-HCC tumor ([2]; 12 h after CA4P 10 mg/kg iv): slightly rose
- ADCdiff in surrounding cirrhotic liver ([2]; 12 h after CA4P 10 mg/kg iv): nearly unchanged
- ADCperf (blood perfusion) in micro-HCC tumor [2, 5]: drop of tumor perfusion
- ADCperf (blood perfusion) in surrounding cirrhotic liver [2, 5]: sharply decreased blood perfusion
- duration of continuous liver ischemia ([2]; cirrhotic liver, CA4P 10 mg/kg iv): at least 12 h
- tumoral necrosis on MRI, representative microcancer Tumor 1 ([2]; twelve hours after CA4P treatment, T2WI, ADC, CE-T1WI): massive tumoral necrosis
- survival of rats (cirrhotic liver; DENA gavage, anesthesia, MRI with contrast and intravenous CA4P treatment, 19 rats): All rats survived
- necrosis in cirrhotic liver parenchyma (cirrhotic liver; microscopy, 12 h after CA4P 10 mg/kg iv): necrotic foci scattered in the cirrhotic liver
- onset of tumor vascular disruption (implanted tumor models): less than 1 hour
- time to extensive intratumoral necrosis (implanted tumor models): ≤ 12 h
- tumoral necrosis, hypovascular Grade I-II well-differentiated micro-HCCs (Tumor 1-5) ([3]; histopathology, CA4P 10 mg/kg iv, 12 h): 82.77-96.45%
- tumoral necrosis, Grade IV undifferentiated Tumor 7 (vascular lakes) [3, 6]: minimal necrosis
- tumoral necrosis, hypervascular Grade III poorly differentiated Tumor 6 [3, 6]: 23.15%
- rate of tumoral necrosis in hepatic microcancers higher than in larger HCCs ([3]; micro-HCCs ≤5 mm versus HCCs >5 mm, CA4P 10 mg/kg iv, 12 h): 36.9% and 36.93%
- correlation of CA4P-induced tumoral necrosis with tumor diameter, micro-HCCs ([3]; tumors with diameters of ≤5 mm): not linearly correlated
- histology of representative micro R1 tumor (rhabdomyosarcomas (R1); 12 h after CA4P treatment, HE stained microscopy): massive and partial hemorrhagic tumor necrosis
- necrosis in liver-implanted R1 lesions (rhabdomyosarcomas (R1); R1 of 1 to 5 mm in diameter, 10 out of 11 lesions): over 90%
- tumour necrosis (α) known to be induced (macro- and micro-cancers): 50-99%
- CA4P efficacy in large tumors relative to small tumors [4]: 16.6 fold
